Experimental data as given in patent publication US6919190B2, “Regulation of carbon assimilation” (priority 1999, dated 2005).

Key:
[1] = system: PEP carboxylase of Corynebacterium glutamicum strain BF100 (lysine-producing); experiment: PEP carboxylase activity in crude extract, lysine-producing strain; assay type: biochemical; conditions: relative to Complete = 100%, change in absorbance at 340 nm/min
Method: (§1) It is possible for the measurement of the enzyme activity to use a spectrometric method (Yoshinage, T., et al., J. Biochem. 68:747-750 (1970)) and the like. For example, when the enzyme assay is measured in a continuous or kinetic mode while the reaction is occurring, the reaction can be measured spectrophotometrically by following the decrease in the absorbance (usually at 340 nanometers).
(§2) Activity units were measured spectrophotometrically as the change in absorbance (340 nm/min) using crude extracts.

[2] = molecular target: T1, PEP carboxylase of Corynebacterium glutamicum strain ATCC 13032 (wild-type) (Corynebacterium glutamicum, UniProt P12880); experiment: PEP carboxylase activity in crude extract, wild-type strain; assay type: biochemical; conditions: crude extract of ATCC 13032, relative to Complete = 100%, change in absorbance at 340 nm/min
T1 construct: endogenous in cells; host or cells: Corynebacterium glutamicum ATCC 13032, crude extract
T1 sequence (P12880 whole entry): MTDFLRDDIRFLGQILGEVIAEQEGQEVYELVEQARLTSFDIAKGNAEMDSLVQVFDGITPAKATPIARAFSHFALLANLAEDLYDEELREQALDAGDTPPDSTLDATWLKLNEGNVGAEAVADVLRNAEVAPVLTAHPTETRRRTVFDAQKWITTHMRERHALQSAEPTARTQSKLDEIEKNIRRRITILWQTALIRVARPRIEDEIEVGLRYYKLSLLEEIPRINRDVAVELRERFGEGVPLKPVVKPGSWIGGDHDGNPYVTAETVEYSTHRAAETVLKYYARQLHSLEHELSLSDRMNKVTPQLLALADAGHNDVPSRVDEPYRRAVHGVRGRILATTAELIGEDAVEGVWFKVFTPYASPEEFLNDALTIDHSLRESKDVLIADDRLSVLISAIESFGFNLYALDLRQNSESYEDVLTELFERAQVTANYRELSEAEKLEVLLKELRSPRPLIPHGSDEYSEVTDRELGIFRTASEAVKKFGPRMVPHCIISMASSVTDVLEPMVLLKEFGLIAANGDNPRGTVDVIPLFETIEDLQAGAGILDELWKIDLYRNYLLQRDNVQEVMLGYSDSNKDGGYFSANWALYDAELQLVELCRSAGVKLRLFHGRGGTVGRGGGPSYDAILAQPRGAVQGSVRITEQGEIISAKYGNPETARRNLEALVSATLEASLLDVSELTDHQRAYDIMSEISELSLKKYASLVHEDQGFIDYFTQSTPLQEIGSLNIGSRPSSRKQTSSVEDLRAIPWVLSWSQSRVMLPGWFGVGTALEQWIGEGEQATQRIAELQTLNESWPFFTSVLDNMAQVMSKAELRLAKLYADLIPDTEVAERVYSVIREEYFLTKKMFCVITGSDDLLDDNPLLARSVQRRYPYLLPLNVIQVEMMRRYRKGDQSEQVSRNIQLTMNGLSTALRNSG
Method: as §1, §2

[3] = molecular target: T2, PEP carboxylase from a strain of Medicago sativa (Medicago sativa, UniProt Q02735); conditions: Vance et al., Plant Physiol. 75:261-264 (1984); cited from earlier work
T2 sequence (Q02735 1-966): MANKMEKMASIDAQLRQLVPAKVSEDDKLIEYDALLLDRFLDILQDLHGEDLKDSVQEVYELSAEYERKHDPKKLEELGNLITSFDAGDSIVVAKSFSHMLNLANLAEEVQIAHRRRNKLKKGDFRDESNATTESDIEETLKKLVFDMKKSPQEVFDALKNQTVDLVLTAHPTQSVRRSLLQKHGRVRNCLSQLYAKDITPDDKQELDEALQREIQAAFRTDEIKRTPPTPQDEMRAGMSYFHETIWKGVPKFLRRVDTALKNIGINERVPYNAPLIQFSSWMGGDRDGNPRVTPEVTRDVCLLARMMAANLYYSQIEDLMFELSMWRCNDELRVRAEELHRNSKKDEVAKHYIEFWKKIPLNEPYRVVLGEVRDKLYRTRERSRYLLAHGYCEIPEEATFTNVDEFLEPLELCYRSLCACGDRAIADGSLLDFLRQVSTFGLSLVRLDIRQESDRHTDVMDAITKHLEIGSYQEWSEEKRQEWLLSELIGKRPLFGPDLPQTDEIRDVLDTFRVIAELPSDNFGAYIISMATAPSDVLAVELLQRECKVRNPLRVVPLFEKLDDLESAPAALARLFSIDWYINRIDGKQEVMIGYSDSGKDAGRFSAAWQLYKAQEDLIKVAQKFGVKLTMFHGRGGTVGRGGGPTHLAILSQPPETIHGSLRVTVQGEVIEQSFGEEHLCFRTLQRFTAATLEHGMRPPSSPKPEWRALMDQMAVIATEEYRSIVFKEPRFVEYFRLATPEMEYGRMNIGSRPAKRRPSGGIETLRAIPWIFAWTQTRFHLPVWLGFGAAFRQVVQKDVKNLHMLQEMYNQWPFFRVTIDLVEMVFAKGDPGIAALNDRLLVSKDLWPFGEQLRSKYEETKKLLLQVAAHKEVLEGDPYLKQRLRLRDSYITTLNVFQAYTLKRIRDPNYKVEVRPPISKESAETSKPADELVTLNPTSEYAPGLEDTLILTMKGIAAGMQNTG

Question: With `CC(=O)SCCNC(=O)CCNC(=O)[C@H](O)C(C)(C)COP(=O)(O)OP(=O)(O)OC[C@H]1O[C@@H](n2cnc3c(N)ncnc32)[C@H](O)[C@@H]1OP(=O)(O)O` [Acetyl CoA, acetyl coenzyme A] as the compound, how does the “PEP Carboxylase Activity −Acetyl CoA” value ([1]; acetyl CoA omitted) read?
Answer: 15%

Question: And the “PEP Carboxylase Activity −Acetyl CoA” value ([2]; acetyl CoA omitted)?
Answer: 56%

Question: Which “PEP Carboxylase Activity +Aspartate (5 mM)” value ([1]; 5 mM aspartate) does the source give for `N[C@@H](CC(=O)O)C(=O)O` [Aspartate, L-aspartic acid] here?
Answer: 17%

Question: What about the “inhibition of PEP carboxylase activity” value [3] of the same compound?
Answer: not substantially inhibited

Question: And the “PEP Carboxylase Activity +Aspartate (5 mM)” value ([2]; 5 mM aspartate)?
Answer: 100%
